Data reported in PubChem BioAssay (NCI).
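Cultured in 96-well plates, cells were exposed to test compound for 48 hours across five concentrations. Abbreviation: GI50, concentration required for 50% inhibition of growth. TGI: total growth inhibition.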

Columns and labels:
Assay in all cases: growth of human tumour cells (NCI), 48 h; in the data active = GI50 below about 0.43 µM; inactive = the rest
[1] = tested on: SNB-19 CNS
[2] = tested on: CCRF-CEM leukemia
[3] = tested on: HOP-92 NSCLC
[4] = tested on: SNB-75 CNS
[5] = tested on: SF-539 CNS
[6] = tested on: KM12 colon
[7] = tested on: SF-268 CNS
[8] = tested on: MDA-MB-435
[9] = tested on: NCI/ADR-RES ovarian
[10] = tested on: MCF7 breast

Cc1ccc(S(=O)(=O)N/N=C(/c2nc3ccc([N+](=O)[O-])cc3[nH]c2=O)C(O)c2ccc(C(O)/C(=N\NS(=O)(=O)c3ccc(C)cc3)c3nc4ccc([N+](=O)[O-])cc4[nH]c3=O)cc2)cc1 (stereo not given)
> 100 µM: TGI [1] | TGI [2] | TGI [3] | TGI [4] | TGI [5] | TGI [6]

CC(C)(C)C(C#N)(C#N)c1ccc(C(C#N)(C#N)C(C)(C)C)nn1
> 100 µM: TGI [1] | TGI [2] | TGI [3] | TGI [7] | TGI [5] | TGI [6]
75.2 µM: TGI [4]

ClC(Cl)[Si]12OCCN(CCO1)CCO2
> 100 µM: TGI [1] | TGI [2] | TGI [3] | TGI [4] | TGI [7] | TGI [5] | TGI [6]

COC(=O)C=Cc1ccc2nncnc2c1 (mixture of isomers)
99 µM: TGI [6]
35.5 µM: TGI [8]
55.1 µM: TGI [4]
> 100 µM: TGI [1] | TGI [2] | TGI [7] | TGI [9] | TGI [5] | TGI [10]

Brc1ccc2ns[s+]c2c1
> 100 µM: TGI [1] | TGI [2] | TGI [4] | TGI [7] | TGI [6]
95 µM: TGI [3]
65.3 µM: TGI [5]

Nc1ncnc2c1ncn2C1OC(CO)C(O)C1N (stereo not given)
> 100 µM: TGI [1] | TGI [3] | TGI [4] | TGI [8] | TGI [7] | TGI [9] | TGI [5] | TGI [6]

O=C(Nc1nc2c(ncn2C2OC(CO)C(O)C2O)c(=O)[nH]1)c1ccccc1 (stereo not given)
> 100 µM: TGI [2] | TGI [3] | TGI [4] | TGI [7] | TGI [5] | TGI [6]

O=C(COc1cccc(/C=C2\CSc3ccccc3C2=O)c1)Nc1nccs1
12.5 µM: TGI [4]
3.54 µM: TGI [10]
19.6 µM: TGI [1]
4.06 µM: TGI [2]
11 µM: TGI [9]
4.85 µM: TGI [8]
inactive: GI50 [1] 6.48 µM | GI50 [2] 1.26 µM | GI50 [4] 1.13 µM | GI50 [8] 2.02 µM | GI50 [7] 1.76 µM | GI50 [9] 3.2 µM | GI50 [5] 2.4 µM | GI50 [6] 1.53 µM | GI50 [10] 0.779 µM
2.86 µM: TGI [6]
3.35 µM: TGI [7]
13.3 µM: TGI [5]

C=CCc1cc(OC)c2c(c1)C(OC)CC(c1ccc(OC)c(OC)c1)O2 (stereo not given)
> 100 µM: TGI [1] | TGI [2] | TGI [4] | TGI [7] | TGI [5] | TGI [6]

CC(=O)NNc1nc(C)c(C(=O)NNC(=O)C(=O)Nc2ccc(Cl)cc2Cl)s1
56.2 µM: TGI [2]
99.5 µM: TGI [5]
> 100 µM: TGI [1] | TGI [6]
70.9 µM: TGI [3]
78.6 µM: TGI [7]

O=P(O)(O)C1(P(=O)(O)O)CC1
> 100 µM: TGI [1] | TGI [2] | TGI [4] | TGI [7] | TGI [5] | TGI [6]

COc1cc2c(=O)[nH]c3cc([N+](=O)[O-])ccc3c2cc1[N+](=O)[O-]
88 µM: TGI [7]
20 µM: TGI [4]
> 100 µM: TGI [1] | TGI [2] | TGI [3] | TGI [9] | TGI [5] | TGI [6] | TGI [10]
inactive: GI50 [1] 24.1 µM | GI50 [2] 3.99 µM | GI50 [3] 15.8 µM | GI50 [4] 2.08 µM | GI50 [7] 4.42 µM | GI50 [9] 5.29 µM | GI50 [5] 4.65 µM | GI50 [6] 4.67 µM | GI50 [10] 0.979 µM

Cc1c(/C=N/N(C)C)oc2c1cc(O)c1ncccc12
> 100 µM: TGI [1] | TGI [7] | TGI [6]
76.8 µM: TGI [3]
7.26 µM: TGI [2]
86.6 µM: TGI [4]

CCOC(=O)C1(C)CCCCC(=O)N1 (stereo not given)
> 100 µM: TGI [1] | TGI [3] | TGI [4] | TGI [7]

CC1(c2ccc(Cl)cc2)C2C(=O)NC(=O)C1C(=O)NC2=O (stereo not given)
> 100 µM: TGI [1] | TGI [2] | TGI [3] | TGI [4] | TGI [7] | TGI [5] | TGI [6]

CC(=O)NC(CC(C)C)C(=O)NC(Cc1ccccc1)C(=S)N1CCCC1 (stereo not given)
> 100 µM: TGI [1] | TGI [2] | TGI [3] | TGI [4] | TGI [7] | TGI [6]

CCn1c(-c2nonc2N)nc2cncc(C(=O)N3CC[C@H](N)C3)c21
> 7.84 µM: TGI [4]
active: GI50 [4] 0.319 µM
inactive: GI50 [1] > 25 µM | GI50 [2] 15.2 µM | GI50 [8] > 25 µM | GI50 [7] > 19.5 µM | GI50 [9] > 25 µM | GI50 [5] 2.63 µM | GI50 [6] > 25 µM | GI50 [10] 14.1 µM
> 25 µM: TGI [1] | TGI [2] | TGI [8] | TGI [7] | TGI [9] | TGI [5] | TGI [6] | TGI [10]

Nc1c(Cl)ncnc1NCCCNc1ncnc(Cl)c1N
> 100 µM: TGI [1] | TGI [2] | TGI [3] | TGI [7] | TGI [5] | TGI [6]

CC1=C(C(=O)Nc2cc(F)c(F)cc2F)C(c2ccc([N+](=O)[O-])cc2)C(C(=O)Nc2cc(F)c(F)cc2F)=C(C)N1
63 µM: TGI [4]
> 100 µM: TGI [1] | TGI [7] | TGI [5] | TGI [6]
78.7 µM: TGI [2]
42.2 µM: TGI [3]

CN1CSC(=S)N(Cc2ccccc2)C1
19.8 µM: TGI [8]
36.1 µM: TGI [7]
65.9 µM: TGI [4]
17.6 µM: TGI [10]
> 100 µM: TGI [1] | TGI [2] | TGI [9]
inactive: GI50 [1] 77.1 µM | GI50 [2] 18 µM | GI50 [4] 5.81 µM | GI50 [8] 3.58 µM | GI50 [7] 14.8 µM | GI50 [9] 28.2 µM | GI50 [5] 4.46 µM | GI50 [6] 1.87 µM | GI50 [10] 3.18 µM
21.3 µM: TGI [5]
4.19 µM: TGI [6]

CC(=O)C1=C(O)C2C3c4c[nH]c5cccc(c45)CC3C(C)(C)N2C1=O (stereo not given)
44.4 µM: TGI [5]
> 100 µM: TGI [1] | TGI [2] | TGI [3] | TGI [7] | TGI [6]

COc1ccc(/C=C/C(=O)c2sc(-n3nc(-c4ccccc4)cc3-c3ccccc3)nc2C)cc1
inactive: GI50 [1] > 100 µM | GI50 [2] > 100 µM | GI50 [4] 56.1 µM | GI50 [7] > 100 µM | GI50 [5] > 100 µM
> 100 µM: TGI [1] | TGI [2] | TGI [4] | TGI [7] | TGI [5] | TGI [6]

NC(=O)NC1C(C(N)=O)N(Cc2ccccc2)C(=O)N1Cc1ccccc1 (stereo not given)
> 100 µM: TGI [1] | TGI [2] | TGI [3] | TGI [4] | TGI [7] | TGI [5] | TGI [6]

COc1cc(CCc2ccc(N)cc2)cc(OC)c1OC
> 100 µM: TGI [1] | TGI [2] | TGI [3] | TGI [4] | TGI [7] | TGI [5] | TGI [6]

Nc1ncnc2c1ncn2C1CC(OCc2ccccc2[N+](=O)[O-])C(CO)O1 (stereo not given)
> 50 µM: TGI [1] | TGI [2] | TGI [3] | TGI [7] | TGI [5] | TGI [6]

CN(c1ccccc1)c1c(Cl)c(=O)oc2c1ccc1occc12
> 100 µM: TGI [1] | TGI [2] | TGI [3] | TGI [4] | TGI [5]

CN1c2ccccc2N(C(=O)c2ccccc2)C(CC(=O)O)c2cccn21 (stereo not given)
> 100 µM: TGI [1] | TGI [2] | TGI [3] | TGI [4] | TGI [7] | TGI [5] | TGI [6]

COc1ccc(N=N/C(C(=O)C(F)(F)F)=C(\O)c2ccc(Cl)cc2)cc1
> 100 µM: TGI [1] | TGI [2] | TGI [7]
38.7 µM: TGI [6]
inactive: GI50 [1] 16.5 µM | GI50 [2] 4.61 µM | GI50 [4] 10.3 µM | GI50 [8] 2.49 µM | GI50 [7] 12 µM | GI50 [9] 3.56 µM | GI50 [5] 6.33 µM | GI50 [6] 2.61 µM | GI50 [10] 4.11 µM
37.6 µM: TGI [4] | TGI [10]
8.77 µM: TGI [8]
23.2 µM: TGI [9]
39.8 µM: TGI [5]

CC(SC(=O)Nc1ccc(N=Nc2ccccc2)cc1)C(=O)O (stereo not given)
46.4 µM: TGI [4]
48.9 µM: TGI [7]
> 100 µM: TGI [1] | TGI [2] | TGI [5] | TGI [6]

O=C(NNc1ccccc1)/C(=C/c1ccc2c(c1)OCO2)NC(=O)c1ccccc1
> 100 µM: TGI [1] | TGI [2] | TGI [3] | TGI [4] | TGI [7] | TGI [5] | TGI [6]

CCN1CCN(C(=O)[C@]23CCC(C)(C)C[C@@H]2C2=CC[C@@H]4[C@@]5(C)C/C(=C/c6ccncc6)C(=O)C(C)(C)[C@@H]5CC[C@@]4(C)[C@]2(C)CC3)CC1
3.17 µM: TGI [9]
5.32 µM: TGI [2]
2.81 µM: TGI [8]
2.39 µM: TGI [3]
3.04 µM: TGI [5]
2.98 µM: TGI [6]
inactive: GI50 [1] 1.48 µM | GI50 [2] 1.7 µM | GI50 [3] 1.07 µM | GI50 [8] 1.41 µM | GI50 [9] 1.48 µM | GI50 [5] 1.64 µM | GI50 [6] 1.47 µM | GI50 [10] 1.08 µM
2.86 µM: TGI [1]
2.53 µM: TGI [10]

CC(=O)OC1COC(n2c(=S)n(-c3ccccc3)c(=O)c3ccccc32)C(OC(C)=O)C1OC(C)=O (stereo not given)
> 100 µM: TGI [1] | TGI [2] | TGI [3] | TGI [4] | TGI [7] | TGI [5] | TGI [6]

c1ccc2c(c1)cc1n2CC2CN=NC12 (stereo not given)
> 100 µM: TGI [1] | TGI [4] | TGI [7] | TGI [5] | TGI [6]

CC1(C)C(=O)C(C)(C)C1=S
> 100 µM: TGI [1] | TGI [2] | TGI [4] | TGI [7] | TGI [6]

CCSc1c2ccccc2c(-c2nc(F)nc(F)n2)n1CCc1ccccc1
> 100 µM: TGI [1] | TGI [2] | TGI [3] | TGI [7] | TGI [5] | TGI [6]
